Assay results as given in patent US8236963B2, “Tricyclic spiro derivatives as CRTH2 modulators” (Merck Serono SA, priority 2005, dated 2012).
pKi: −log10 of the molar value.

How the values were obtained:
CRTH2 [1] = target: T1, CRTH2 (Homo sapiens, UniProt Q9Y5Y4); assay: Radioligand binding assay ([3H]PGD2, hCRTH2 HEK293 (EBNA) cell membranes); design: expressed in transfected cells; host or cells: HEK293 (EBNA) cells, membrane preparation; settings: 1.5 nM [3H]PGD2, 10 μg hCRTH2 HEK293 (EBNA) membrane protein, 60 min at room temperature
T1 sequence (Q9Y5Y4 1-395): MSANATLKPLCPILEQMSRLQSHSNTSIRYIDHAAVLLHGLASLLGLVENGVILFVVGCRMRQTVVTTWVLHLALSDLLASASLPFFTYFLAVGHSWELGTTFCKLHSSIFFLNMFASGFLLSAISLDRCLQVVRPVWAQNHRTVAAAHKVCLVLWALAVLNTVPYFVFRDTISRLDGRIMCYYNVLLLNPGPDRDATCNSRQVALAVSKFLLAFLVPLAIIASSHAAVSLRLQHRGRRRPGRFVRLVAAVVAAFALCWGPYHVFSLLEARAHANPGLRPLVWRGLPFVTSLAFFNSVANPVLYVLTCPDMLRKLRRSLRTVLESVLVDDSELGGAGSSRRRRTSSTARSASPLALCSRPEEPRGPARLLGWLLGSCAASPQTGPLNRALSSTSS
Text: Human CRTH2 cDNA was amplified by PCR using a human urinary bladder cDNA library as a template and specific primers containing HindIII and BamHI restriction sites for cloning into the pCEP4 vector (Invitrogen). The vector construction is described in detail in Sawyer et al., Br. J. Pharmocol 2002, 137, 1163-72. The nucleotide sequence of the cloned cDNA was identical the previously reported hCRTH2 sequence (Nagata et al, 1999, J. Immunol. 162, 1278-1286).
HEK293 (EBNA) cells were transfected with the pCEP4-hCRTH2 construct using the calcium phosphate technique. Cells were maintained in culture at 37° C. in an atmosphere of 5% CO2 in Dulbecco's modified Eagle's F12 medium (Invitrogen), containing 10% heat-inactivated foetal calf serum (TerraCell International, Canada), 2 mM Glutamine, 100 units/ml of penicillin and 100 μg/ml streptomycin (Invitrogen). 48 hours after the transfection, cells were grown in presence of 300 μg/ml of Hygromycin B (Invitrogen) for 4 weeks and antibiotic resistant cells were amplified for cell membrane preparation.
Adherent HEK293 (EBNA) cells expressing hCRTH2 were cultured in 225 cm^2 cell culture flasks (Corning, USA) in 30 ml of medium. After two rinses of phosphate buffered saline (PBS), cells were harvested in 10 ml of PBS containing 1 mM EDTA, centrifuged at 500×g for 5 min at 4° C. and frozen at −80° C. The pellet was re-suspended in 50 mM Tris-HCl, pH 7.4, 2 mM EDTA, 250 mM Sucrose, containing protease inhibitor cocktail tablets, (Complete EDTA-free, Roche, Germany) and incubated 30 min at 4° C. Cells were disrupted by nitrogen cavitation (Parr Instruments, USA) at 4° C. (800 p.s.i. for 30 min), and centrifuged at 500×g for 10 min at 4° C. Pellet containing nuclei and cellular debris was discarded and supernatant was centrifuged 60 min at 4° C. at 45000×g. Membrane pellet was re-suspended in storage buffer (10 mM HEPES/KOH pH 7.4, 1 mM EDTA, 250 mM sucrose, protease inhibitor cocktail tablets) using Dounce homogenization and frozen in liquid nitrogen, and stored at −80° C.
The inhibitory activity can be investigated by a radioligand binding assay (Sawyer et al., Br. J. Pharmocol 2002, 137, 1163-72). The radioligand binding assay was performed at room temperature in binding buffer (10 mM HEPES/KOH pH […], with protease inhibitor cocktail tablets), containing 1.5 nM [^3H]PGD2 (Amersham, 156 Cie/mmol), and 10 μg of hCRTH2 HEK293 (EBNA) cell membrane protein in a final volume of 100 μl in 96 well plates (Corning, USA). Non-specific binding was determined in the presence of 1 μM PGD2 (Cayman, USA). Competing spiro-indolinones were diluted in dimethylsulphoxide so that the total volume of dimethylsulfoxide was kept constant at 1% dimethylsulphoxide (Me2SO) Serial dilutions of 100 μM and […] were prepared. 10 μl each of these spiro-indolinone stock solutions were added. Incubation (60 min at room temperature) was terminated by rapid filtration through 96 wells hydrophobic GF/C Unifilter plates (Whatman, USA). Filters were washed twice with 250 μl of Tris-HCl pH 7.4, 10 mM MnCl2, and residual radioligand bound to the filters was mixed to 100 μl of liquid scintillation cocktail (Optiphase Supermix, Perkin Elmer, USA) and binding activity was determined by counting residual radioligand using a 1450 Micro-beta scintillation counter (Wallac, UK). The following representative compounds were tested. […]

CRTH2 [2] = target: T1, CRTH2; assay: Determination of Ki (radioligand binding assay, equilibrium competition against [3H]PGD2); design: expressed in transfected cells; host or cells: HEK293 (EBNA) cells, membrane preparation; settings: average of at least three independent dose response experiments
Description: The inhibitory activity can be investigated by a radioligand binding assay (Sawyer et al., Br. J. Pharmocol 2002, 137, 1163-72). The radioligand binding assay was performed at room temperature in binding buffer (10 mM HEPES/KOH pH […], with protease inhibitor cocktail tablets), containing 1.5 nM [^3H]PGD2 (Amersham, 156 Cie/mmol), and 10 μg of hCRTH2 HEK293 (EBNA) cell membrane protein in a final volume of 100 μl in 96 well plates (Corning, USA). Non-specific binding was determined in the presence of 1 μM PGD2 (Cayman, USA). Competing spiro-indolinones were diluted in dimethylsulphoxide so that the total volume of dimethylsulfoxide was kept constant at 1% dimethylsulphoxide (Me2SO) Serial dilutions of 100 μM and […] were prepared. 10 μl each of these spiro-indolinone stock solutions were added. Incubation (60 min at room temperature) was terminated by rapid filtration through 96 wells hydrophobic GF/C Unifilter plates (Whatman, USA). Filters were washed twice with 250 μl of Tris-HCl pH 7.4, 10 mM MnCl2, and residual radioligand bound to the filters was mixed to 100 μl of liquid scintillation cocktail (Optiphase Supermix, Perkin Elmer, USA) and binding activity was determined by counting residual radioligand using a 1450 Micro-beta scintillation counter (Wallac, UK). The following representative compounds were tested. All inhibited the binding of PGD2 to CRTH2 by more than 70%. • (1′-benzyl-5-chloro-2,2′,5′-trioxospiro[indole-3,3′-pyrrolidin]-1(2H)-yl)acetic acid • (1′-benzyl-5-fluoro-2,2′,5′-trioxospiro[indole-3,3′-pyrrolidin]-1(2H)-yl)acetic acid • 4-(1′-allyl-5-chloro-2,2′,5′-trioxospiro[indole-3,3′-pyrrolidin]-1(2H)-yl)butanoic acid • [5-chloro-1′-(2-methoxyethyl)-2,2′,5′-trioxospiro[indole-3,3′-pyrrolidin]-1(2H)-yl]acetic acid • 4-(1′-benzyl-5-chloro-2,2′,5′-trioxospiro[indole-3,3′-pyrrolidin]-1(2H)-yl)butanoic acid • (1′-benzyl-5-methoxy-2,2′,5′-trioxospiro[indole-3,3′-pyrrolidin]-1(2H)-yl)acetic acid • [5-fluoro-1′-[(2-methoxyethoxy)methyl]-2,2′,5′-trioxospiro[indole-3,3′-pyrrolidin]-1(2H)-yl]acetic acid • 4-(1′-allyl-5-fluoro-2,2′,5′-trioxospiro[indole-3,3′-pyrrolidin]-1(2H)-yl)butanoic acid • 4-(1′-benzyl-5-fluoro-2,2′,5′-trioxospiro[indole-3,3′-pyrrolidin]-1(2H)-yl)butanoic acid
Ki values were determined by equilibrium competition binding experiments against [^3H]PGD2. Ki values were calculated from the formula below and represent the average of at least three independent dose response experiments. The Ki values give the ligand concentrations necessary to inhibit 50% of the binding of [^3H]PGD2 to CRTH2. Ki=IC50/(1+[Concentration of Ligand]/Kd)]
All experiments were performed in 96 well plates, in a final volume of 100 μl according to the above described filtration assay. The concentration of membranes and 3 [H]PGD2, as well as the positive and negative controls were identical to the conditions described above.

[3] = tested on: DK-PGD2-induced vascular leakage; assay: Model of DK-PGD2-induced vascular leakage in mice; format: in vivo, Balb/c mice; settings: Mus musculus, 1.5 h; dose of 30 mg/kg; 30 min before DK-PGD2 challenge; Evans blue extravasation
Description: This test is described in Takeshita et al. (2004). Balb/c mice (Elevage Janvier) (8 week old) received an intradermal injection of DK-PGD2 (10 μg in 30 μl) on their shaved backs and an intravenous injection of Evans blue solution (25 mg/kg) 30 min after administration of the test molecules (spiro derivative). Ninety minutes after the challenge, the animals were sacrificed. The skin of the back was removed and blood was sampled. The extravasated dye (punch diameter: 5 mm) was extracted by 0.2 ml of formamide and was quantified by fluorescence (E1: 585 nm, E2: 660 nm). The Evans Blue extravasation ratio was expressed as the following: skin/serum×1000.

[4] = tested on: DNFB-induced ear swelling; assay: CHS model (contact hypersensitivity to DNFB, ear swelling); format: in vivo, Balb/c mice; settings: 60 mg/kg; po; 30 min before DNFB challenge; ear thickness on day 6
Text: The contact hypersensitivity model can be used to evaluate the therapeutic efficacy of spiro derivatives on skin inflammation mediated by T cells. The model is well established for characterization of compound for dermatological indications like psoriasis and allergic contact dermatitis (Xu et al. J Exp Med. 183, 1001-12, 1996). It involves a sensitization phase and a subsequent challenge with an antigen (DNFB, 2,4-dinitrofluorbenzene). […] The edema can be measured by caliper at the challenged site (ear of the mice). Intravenous or oral administration with 10% Labrasol as vehicle of the compounds of the invention 30 min before challenge with DNFB results in a decrease of the swelling and therefore reduces inflammation in the skin compared to positive controls treated with vehicle only before challenge with the antigen. Negative control mice are not sensitized, but challenged with DNFB, therefore no T cell dependent inflammation occurs and no edema is formed. Balb/c mice were obtained from CharlesRiver (Calcco, Italy). […]
Mice were sensitized and challenged to elicit CHS to DNFB. […] Ear thickness was monitored on day 6 (1 day after challenge) using a caliper (Mitutoyo, Milan, Italy). Ear swelling was calculated as ((Tn−T5)right ear−(Tn−T5)left ear), wherein Tn and T5 represent values of ear thickness at day n of investigation and day 5 prior to challenge, respectively.

SMILES: O=C(O)CN1C(=O)C2(CC(=O)N(Cc3ccccc3)C2=O)c2cc(Cl)ccc21 (stereo not shown) [Example 12, (1′-Benzyl-5-chloro-2,2′,5′-trioxo-spiro[indole-3,3′-pyrrolidin]-1-yl)acetic acid]
- melting point: 205 to 207 °C
- inhibition (CRTH2 [1]): > 70%

SMILES: O=C(O)CN1C(=O)C2(CC(=O)N(Cc3ccccc3)C2)c2cc(Cl)ccc21 (stereo not shown) [Compound 113, (1′-benzyl-5-chloro-2,5′-dioxospiro[indole-3,3′-pyrrolidin]-1(2H)-yl)acetic acid]
- pKi (CRTH2 [2]): 6.20
- inhibition in vivo at 30 mg/kg [3]: 55%

SMILES: O=C(O)CN1C(=O)C2(CC(=O)N(Cc3ccccc3F)C2)c2cc(Cl)ccc21 (stereo not shown) [Compound 115, [5-chloro-1′-(2-fluorobenzyl)-2,5′-dioxospiro[indole-3,3′-pyrrolidin]-1(2H)-yl]acetic acid]
- pKi (CRTH2 [2]): 6.85
- inhibition in vivo at 30 mg/kg [3]: 45%

SMILES: O=C(O)CN1C(=O)[C@]2(CC(=O)N(Cc3cccc(Cl)c3)C2=O)c2cc(Cl)ccc21 [Compound 83, (3S)-[5-chloro-1′-(3-chlorobenzyl)-2,2′,5′-trioxospiro[indole-3,3′-pyrrolidin]-1(2H)-yl]acetic acid]
- reduction in ear swelling [4]: 40%
- inhibition in vivo at 30 mg/kg [3]: 77%

SMILES: O=C(O)CN1C(=O)C2(CC(=O)N(Cc3cc(Cl)ccc3F)C2)c2cc(Cl)ccc21 (stereo not shown) [Compound 116, [5-chloro-1′-(5-chloro-2-fluorobenzyl)-2,5′-dioxospiro[indole-3,3′-pyrrolidin]-1(2H)-yl]acetic acid]
- pKi (CRTH2 [2]): 7.66
- inhibition in vivo at 30 mg/kg [3]: 51%

SMILES: O=C(O)CN1C(=O)C2(NC(=O)N(Cc3cc(Cl)ccc3F)C2=O)c2cc(Cl)ccc21 (stereo not shown) [Compound 105, [5′-chloro-1-(5-chloro-2-fluorobenzyl)-2,2′,5-trioxospiro[imidazolidine-4,3′-indol]-1′(2′H)-yl]acetic acid]
- pKi (CRTH2 [2]): 7.80
- reduction in ear swelling [4]: 55%
- inhibition in vivo at 30 mg/kg [3]: 60%
